What was measured:
Type in all cases: functional
SK-MEL-5 = assay: Growth inhibition of human SK-MEL-5 cells after 48 hrs by SRB protein assay; conditions: SK-MEL-5, 48 h
M14 = assay: Growth inhibition of human M14 cells after 48 hrs by SRB protein assay; conditions: M14, 48 h
ACHN = assay: Growth inhibition of human ACHN cells after 48 hrs by SRB protein assay
OVCAR-8 = assay: Growth inhibition of human OVCAR8 cells after 48 hrs by SRB protein assay; conditions: OVCAR-8, 48 h
T47D = assay: Growth inhibition of human T47D cells after 48 hrs by SRB protein assay
A549 = assay: Growth inhibition of human A549/ATCC cells after 48 hrs by SRB protein assay; conditions: A549, 48 h
NCI/ADR-RES = assay: Growth inhibition of human NCI/ADR-RES cells after 48 hrs by SRB protein assay
RPMI-8226 = assay: Growth inhibition of human RPMI8226 cells after 48 hrs by SRB protein assay; conditions: RPMI-8226, 48 h
CCRF-CEM = assay: Growth inhibition of human CCRF-CEM cells after 48 hrs by SRB protein assay
U-251 = assay: Growth inhibition of human U251 cells after 48 hrs by SRB protein assay; conditions: U-251, 48 h
OVCAR-5 = assay: Growth inhibition of human OVCAR5 cells after 48 hrs by SRB protein assay; conditions: OVCAR-5, 48 h
HCT-116 = assay: Growth inhibition of human HCT116 cells after 48 hrs by SRB protein assay; conditions: HCT-116, 48 h
MDA-MB-435 = assay: Growth inhibition of human MDA-MB-435 cells after 48 hrs by SRB protein assay; conditions: MDA-MB-435, 48 h
UACC-257 = assay: Growth inhibition of human UACC257 cells after 48 hrs by SRB protein assay; conditions: UACC-257, 48 h
NCI-H460 [1] = assay: Growth inhibition of human NCI-H460 cells after 48 hrs by SRB protein assay; conditions: NCI-H460, 48 h
KM12 = assay: Growth inhibition of human KM12 cells after 48 hrs by SRB protein assay; conditions: KM12, 48 h
SW-620 = assay: Growth inhibition of human SW620 cells after 48 hrs by SRB protein assay; conditions: SW-620, 48 h
COLO 205 = assay: Growth inhibition of human COLO205 cells after 48 hrs by SRB protein assay; conditions: COLO 205, 48 h
OVCAR-3 = assay: Growth inhibition of human OVCAR-3 cells after 48 hrs by SRB protein assay; conditions: OVCAR-3, 48 h
SF-295 = assay: Growth inhibition of human SF295 cells after 48 hrs by SRB protein assay; conditions: SF-295, 48 h
NCI-H322M = assay: Growth inhibition of human NCI-H322M cells after 48 hrs by SRB protein assay
HT-29 = assay: Growth inhibition of human HT29 cells after 48 hrs by SRB protein assay; conditions: HT-29, 48 h
HCC 2998 = assay: Growth inhibition of human HCC2998 cells after 48 hrs by SRB protein assay; conditions: HCC 2998, 48 h
MCF7 [2] = assay: Growth inhibition of human MCF7 cells after 48 hrs by SRB protein assay; conditions: MCF7, 48 h
NCI-H460 [3] = assay: Anticancer activity against human NCI-H460 cells assessed as growth of cells at 100 uM relative to untreated cells
TK-10 = assay: Growth inhibition of human TK10 cells after 48 hrs by SRB protein assay; conditions: TK-10, 48 h
HOP-62 = assay: Growth inhibition of human HOP62 cells after 48 hrs by SRB protein assay; conditions: HOP-62, 48 h
NCI-H226 = assay: Growth inhibition of human NCI-H226 cells after 48 hrs by SRB protein assay; conditions: NCI-H226, 48 h
SN12C = assay: Growth inhibition of human SN12C cells after 48 hrs by SRB protein assay
PC-3 = assay: Growth inhibition of human PC3 cells after 48 hrs by SRB protein assay; conditions: PC-3, 48 h
SK-MEL-28 = assay: Growth inhibition of human SK-MEL-28 cells after 48 hrs by SRB protein assay; conditions: SK-MEL-28, 48 h
BT-549 = assay: Growth inhibition of human BT549 cells after 48 hrs by SRB protein assay; conditions: BT-549, 48 h
MCF7 [4] = assay: Anticancer activity against human MCF7 cells assessed as growth of cells at 100 uM relative to untreated cells
Hs-578T = assay: Growth inhibition of human HS578T cells after 48 hrs by SRB protein assay

**Q.** With `CCOC(=O)c1ccc(NC(=O)CC2Sc3ncnn3C2=O)cc1` (stereo unspecified) as the compound, how does the GI50 (SK-MEL-5) read?
**A.** Its GI50 is greater than 100 µM.

**Q.** And the TGI (SK-MEL-5; read-out: Log TGI (converted))?
**A.** Its TGI is greater than 100 µM.

**Q.** And the GI50 (M14)?
**A.** Its GI50 is 18.6 µM.

**Q.** What about the TGI (M14; read-out: Log TGI (converted)) of the same compound?
**A.** Its TGI is 34.7 µM.

**Q.** What about the GI50 (ACHN) of the same compound?
**A.** Its GI50 is 17.4 µM.

**Q.** What about the TGI (ACHN; read-out: Log TGI (converted)) of the same compound?
**A.** The TGI was 31.6 µM.

**Q.** What about the GI50 (OVCAR-8) of the same compound?
**A.** Its GI50 is greater than 100 µM.

**Q.** What about the TGI (OVCAR-8; read-out: Log TGI (converted)) of the same compound?
**A.** Its TGI is greater than 100 µM.

**Q.** What about the GI50 (T47D) of the same compound?
**A.** The GI50 was 23.4 µM.

**Q.** And the TGI (T47D; read-out: Log TGI (converted))?
**A.** Its TGI is 57.5 µM.

**Q.** What about the GI50 (A549) of the same compound?
**A.** The GI50 was greater than 100 µM.

**Q.** What about the TGI (A549; read-out: Log TGI (converted)) of the same compound?
**A.** Its TGI is greater than 100 µM.

**Q.** And the GI50 (NCI/ADR-RES)?
**A.** Its GI50 is 18.2 µM.

**Q.** And the TGI (NCI/ADR-RES; read-out: Log TGI (converted))?
**A.** The TGI was 36.3 µM.

**Q.** And the GI50 (RPMI-8226)?
**A.** The GI50 was 4.57 µM.

**Q.** And the TGI (RPMI-8226; read-out: Log TGI (converted))?
**A.** Its TGI is 9.77 µM.

**Q.** And the GI50 (CCRF-CEM)?
**A.** The GI50 was 24.5 µM.

**Q.** And the TGI (CCRF-CEM; read-out: Log TGI (converted))?
**A.** The TGI was 77.6 µM.

**Q.** And the GI50 (U-251)?
**A.** Its GI50 is greater than 100 µM.

**Q.** And the TGI (U-251; read-out: Log TGI (converted))?
**A.** Its TGI is greater than 100 µM.

**Q.** What about the GI50 (OVCAR-5) of the same compound?
**A.** Its GI50 is 17 µM.

**Q.** And the TGI (OVCAR-5; read-out: Log TGI (converted))?
**A.** Its TGI is 31.6 µM.

**Q.** And the GI50 (HCT-116)?
**A.** The GI50 was 15.8 µM.

**Q.** And the TGI (HCT-116; read-out: Log TGI (converted))?
**A.** Its TGI is 29.5 µM.

**Q.** And the GI50 (MDA-MB-435)?
**A.** Its GI50 is greater than 100 µM.

**Q.** And the TGI (MDA-MB-435; read-out: Log TGI (converted))?
**A.** The TGI was greater than 100 µM.

**Q.** And the GI50 (UACC-257)?
**A.** The GI50 was 87.1 µM.

**Q.** What about the TGI (UACC-257; read-out: Log TGI (converted)) of the same compound?
**A.** Its TGI is greater than 100 µM.

**Q.** What about the GI50 (NCI-H460 [1]) of the same compound?
**A.** The GI50 was greater than 100 µM.

**Q.** What about the TGI (NCI-H460 [1]; read-out: Log TGI (converted)) of the same compound?
**A.** Its TGI is greater than 100 µM.

**Q.** What about the GI50 (KM12) of the same compound?
**A.** The GI50 was greater than 100 µM.

**Q.** And the TGI (KM12; read-out: Log TGI (converted))?
**A.** The TGI was greater than 100 µM.

**Q.** What about the GI50 (SW-620) of the same compound?
**A.** Its GI50 is 38.9 µM.

**Q.** And the TGI (SW-620; read-out: Log TGI (converted))?
**A.** Its TGI is greater than 100 µM.

**Q.** What about the GI50 (COLO 205) of the same compound?
**A.** Its GI50 is 21.4 µM.

**Q.** And the TGI (COLO 205; read-out: Log TGI (converted))?
**A.** The TGI was 40.7 µM.

**Q.** And the GI50 (OVCAR-3)?
**A.** The GI50 was 45.7 µM.

**Q.** What about the TGI (OVCAR-3; read-out: Log TGI (converted)) of the same compound?
**A.** The TGI was greater than 100 µM.

**Q.** And the GI50 (SF-295)?
**A.** Its GI50 is greater than 100 µM.

**Q.** What about the TGI (SF-295; read-out: Log TGI (converted)) of the same compound?
**A.** Its TGI is greater than 100 µM.

**Q.** And the GI50 (NCI-H322M)?
**A.** Its GI50 is greater than 100 µM.

**Q.** And the TGI (NCI-H322M; read-out: Log TGI (converted))?
**A.** Its TGI is greater than 100 µM.

**Q.** And the GI50 (HT-29)?
**A.** Its GI50 is 43.7 µM.

**Q.** What about the TGI (HT-29; read-out: Log TGI (converted)) of the same compound?
**A.** Its TGI is greater than 100 µM.

**Q.** And the GI50 (HCC 2998)?
**A.** The GI50 was 18.2 µM.

**Q.** And the TGI (HCC 2998; read-out: Log TGI (converted))?
**A.** Its TGI is 32.4 µM.

**Q.** And the GI50 (MCF7 [2])?
**A.** Its GI50 is 38.9 µM.

**Q.** What about the TGI (MCF7 [2]; read-out: Log TGI (converted)) of the same compound?
**A.** Its TGI is greater than 100 µM.

**Q.** What about the Activity (NCI-H460 [3]) of the same compound?
**A.** Its Activity is 0%.

**Q.** What about the GI50 (TK-10) of the same compound?
**A.** Its GI50 is 22.9 µM.

**Q.** And the TGI (TK-10; read-out: Log TGI (converted))?
**A.** Its TGI is 55 µM.

**Q.** And the GI50 (HOP-62)?
**A.** The GI50 was 21.4 µM.

**Q.** What about the TGI (HOP-62; read-out: Log TGI (converted)) of the same compound?
**A.** Its TGI is 47.9 µM.

**Q.** What about the GI50 (NCI-H226) of the same compound?
**A.** Its GI50 is 26.3 µM.

**Q.** What about the TGI (NCI-H226; read-out: Log TGI (converted)) of the same compound?
**A.** The TGI was 66.1 µM.

**Q.** What about the GI50 (SN12C) of the same compound?
**A.** The GI50 was 26.3 µM.

**Q.** What about the TGI (SN12C; read-out: Log TGI (converted)) of the same compound?
**A.** Its TGI is 87.1 µM.

**Q.** What about the GI50 (PC-3) of the same compound?
**A.** Its GI50 is 18.2 µM.

**Q.** What about the TGI (PC-3; read-out: Log TGI (converted)) of the same compound?
**A.** The TGI was 40.7 µM.

**Q.** And the GI50 (SK-MEL-28)?
**A.** Its GI50 is 91.2 µM.

**Q.** And the TGI (SK-MEL-28; read-out: Log TGI (converted))?
**A.** The TGI was greater than 100 µM.

**Q.** What about the GI50 (BT-549) of the same compound?
**A.** The GI50 was 21.9 µM.

**Q.** And the TGI (BT-549; read-out: Log TGI (converted))?
**A.** The TGI was 43.7 µM.

**Q.** And the Activity (MCF7 [4])?
**A.** The Activity was 0%.

**Q.** What about the GI50 (Hs-578T) of the same compound?
**A.** The GI50 was greater than 100 µM.

**Q.** What about the TGI (Hs-578T; read-out: Log TGI (converted)) of the same compound?
**A.** Its TGI is greater than 100 µM.

— ChEMBL document CHEMBL1147193, “New 5-substituted thiazolo[3,2-b][1,2,4]triazol-6-ones: synthesis and anticancer evaluation” (2007)
